ChEMBL document CHEMBL1201862, “PubChem BioAssay data set” (2004)
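Each compound was tested at five concentrations against cells in 96-well plates for 48 hours. Here, GI50 denotes the concentration required for 50% inhibition of growth.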 The source made the active and inactive calls. Rule as the data show it: active = GI50 up to about 1.1 µM and inactive = higher.

How the values were obtained:
Experiment in all cases: NCI tumour cell line growth inhibition, 48 h
OVCAR-4 = tested on: OVCAR-4
RXF 393 = tested on: RXF 393
KM12 = tested on: KM12
MDA-MB-231 = tested on: MDA-MB-231
Hs-578T = tested on: Hs-578T
A498 = tested on: A498
OVCAR-5 = tested on: OVCAR-5
SK-MEL-28 = tested on: SK-MEL-28
OVCAR-8 = tested on: OVCAR-8
SR = tested on: SR
MCF7 = tested on: MCF7
SK-MEL-5 = tested on: SK-MEL-5
EKVX = tested on: EKVX
TK-10 = tested on: TK-10
SF-539 = tested on: SF-539
786-0 = tested on: 786-0
UACC-257 = tested on: UACC-257
HCT-116 = tested on: HCT-116
UACC-62 = tested on: UACC-62
SF-295 = tested on: SF-295

Row | SMILES | GI50 (OVCAR-4) | GI50 (RXF 393) | GI50 (KM12) | GI50 (MDA-MB-231) | GI50 (Hs-578T) | GI50 (A498) | GI50 (OVCAR-5) | GI50 (SK-MEL-28) | GI50 (OVCAR-8) | GI50 (SR) | GI50 (MCF7) | GI50 (SK-MEL-5) | GI50 (EKVX) | GI50 (TK-10) | GI50 (SF-539) | GI50 (786-0) | GI50 (UACC-257) | GI50 (HCT-116) | GI50 (UACC-62) | GI50 (SF-295)
1 | Cn1c(=O)c2nc(CCCCc3nc4ccccc4[nH]3)[nH]c2n(C)c1=O | > 100 µM (inactive) | > 100 µM (inactive) | > 100 µM (inactive) | > 100 µM (inactive) | 30.3 µM (inactive) | > 100 µM (inactive) | > 100 µM (inactive) | > 100 µM (inactive) | > 100 µM (inactive) | > 100 µM (inactive) | > 100 µM (inactive) | > 100 µM (inactive) | > 100 µM (inactive) | > 100 µM (inactive) | 17 µM (inactive) | > 100 µM (inactive) | > 100 µM (inactive) | > 100 µM (inactive) | > 100 µM (inactive) | > 100 µM (inactive)
2 | CN(C)CCn1c(=O)c2ccc(NCCCN(C)CCCNc3ccc4c(=O)n(CCN(C)C)c(=O)n5c6ccc(O)cc6c(=O)c3c45)c3c(=O)c4cc(O)ccc4n(c1=O)c23 | < 0.01 µM (active) | < 0.0125 µM (active) | < 0.01 µM (active) | < 0.0244 µM (active) | 0.0234 µM (active) | 0.0289 µM (active) | 0.0442 µM (active) | 0.0841 µM (active) | < 0.01 µM (active) | < 0.01 µM (active) | < 0.01 µM (active) | < 0.01 µM (active) | 0.0933 µM (active) | < 0.0126 µM (active) | < 0.01 µM (active) | < 0.01 µM (active) | 0.181 µM (active) | < 0.01 µM (active) | < 0.0116 µM (active) | < 0.01 µM (active)
3 | CN(C)/C=N/NC(=O)/C(C#N)=C/N(C)C | > 100 µM (inactive) | > 100 µM (inactive) | > 100 µM (inactive) | > 100 µM (inactive) | > 100 µM (inactive) | > 100 µM (inactive) | > 100 µM (inactive) | > 100 µM (inactive) | > 100 µM (inactive) | > 100 µM (inactive) | > 100 µM (inactive) | > 100 µM (inactive) | > 100 µM (inactive) | > 100 µM (inactive) | 64.7 µM (inactive) | > 100 µM (inactive) | > 100 µM (inactive) | > 100 µM (inactive) | > 100 µM (inactive) | > 100 µM (inactive)
4 | CC(C)OC(=O)c1ccc(CCc2cc(O)c(Br)cc2O)cc1 | 2.31 µM (inactive) | 15 µM (inactive) | 6.56 µM (inactive) | 12 µM (inactive) | 14.6 µM (inactive) | 21 µM (inactive) | 17.5 µM (inactive) | 13.9 µM (inactive) | 13.9 µM (inactive) | 23.7 µM (inactive) | 11.7 µM (inactive) | 15.1 µM (inactive) | 15.3 µM (inactive) | 16.9 µM (inactive) | 7.36 µM (inactive) | 12 µM (inactive) | 13.6 µM (inactive) | 11.5 µM (inactive) | 20.2 µM (inactive) | 17.3 µM (inactive)
5 | CC1(C)OCC(C2OC(=O)C(OCc3ccccc3)=C2OCc2ccccc2)O1 (stereo not given) | 42.2 µM (inactive) | 49.1 µM (inactive) | 32 µM (inactive) | 24.6 µM (inactive) | 70.6 µM (inactive) | 22.1 µM (inactive) | 60.1 µM (inactive) | 65.6 µM (inactive) | 50.4 µM (inactive) | 28.4 µM (inactive) | 50.5 µM (inactive) | 17.2 µM (inactive) | 37.6 µM (inactive) | 44.3 µM (inactive) | 72.6 µM (inactive) | 45 µM (inactive) | 29.9 µM (inactive) | 31.3 µM (inactive) | 22.4 µM (inactive) | 34 µM (inactive)
